This experiment has as its system CHO cells. Put plainly: Test of translocation of fluorescence-labeled peptides into CHO cells (FACS and confocal microscopic analysis). The class given is cell-based. As to conditions: for contribution of the alanine-substituted amino acid to the intracellular translocation: comprehensive alanine substitution on the basis of KSH1-1. As for the experimental part:
Each peptide solution, adjusted to 1 mM, was diluted with a medium to three levels, 100 μM, 50 μM, and 25 μM, and added to cells. Three kinds of cells were used: CHO cells, HeLa cells, and Jurkat cells. After each peptide solution was added, the cells were incubated for 1 hour. After the cells were washed with PBS three times, 100 μL of 0.25% trypsin-1 mM EDTA solution was added, and trypsinization was performed at room temperature for 5 minutes. After 400 μL of PBS (10% FCS) was added to stop the trypsinization, the cells were washed with 1 mL of HBSS three times. After the washing, the cells were suspended in 500 μL of PBS (10% FCS) and subjected to flowcytometry (hereinafter, FACS) analysis using FACS Calibur (Becton Dickinson).
Each peptide was synthesized, fluorescently labeled, purified and dissolved in the same manner as Example 1-2, a test of translocation into CHO cells was performed, and an evaluation was performed by confocal microscopic analysis and FACS. FACS analysis was performed in the same manner as Example 1-3. For the KSH1 peptide and modified PTD sequences, i.e., KSH1-1 to KSH1-9 peptides (SEQ ID NOS:1 to 9 in the sequence listing), fluorescence intensities determined by FACS analysis are shown in FIG. 6. The peptide addition concentrations were 50 μM, 25 μM, 12.5 μM and 6.5 μM.
To determine which amino acids are important to the intracellular translocation, comprehensive alanine substitution was performed on the basis of KSH1-1 to design KSH1-11 (SEQ ID NO:11 in the sequence listing) to KSH1-23 (SEQ ID NO:22 in the sequence listing) and KSH1-35 (SEQ ID NO:32 in the sequence listing) (FIG. 7). Each peptide was synthesized, fluorescently labeled, purified and dissolved in the same manner as Example 1-2, a test of translocation into CHO cells was performed, and an evaluation was performed by confocal microscopic analysis and FACS. FACS analysis was performed in the same manner as Example 1-3. For KSH1 and modified PTD sequences, i.e., KSH11-11 to 23 and KSH1-35, fluorescence intensities determined by FACS analysis are shown in FIG. 8. The peptide addition concentrations were 50 μM, 25 μM, 12.5 μM and 6.5 μM.
Each peptide was synthesized, fluorescently labeled, purified and dissolved in the same manner as Example 1-2, a test of translocation into CHO cells was performed, and an evaluation was performed by confocal microscopic analysis and FACS analysis. FACS analysis was performed in the same manner as Example 1-3. For KSH1 and modified PTD sequences, i.e., KSH11-24 to 1-26 and KSH1-28 to 1-30, fluorescence intensities determined by FACS analysis are shown in FIG. 10. The peptide addition concentrations were 50 μM, 25 μM, 12.5 μM and 6.5 μM.
Each peptide was synthesized, fluorescently labeled, purified and dissolved in the same manner as Example 1-2, a test of translocation into CHO cells was performed, and an evaluation was performed by confocal microscopic analysis and FACS analysis. FACS analysis was performed in the same manner as Example 1-3. For KSH1 and modified PTD sequences, i.e., KSH1-27, KSH1-33, KSH1-34 and KSH1-36, fluorescence intensities determined by FACS analysis are shown in FIG. 12. The peptide addition concentrations were 50 μM, 25 μM, 12.5 μM and 6.5 μM.
Each peptide was synthesized, fluorescently labeled, purified and dissolved in the same manner as Example 1-2, and an intracellular translocation test in CHO cells was performed by FACS analysis. Used for positive control were a PTD sequence derived from HIV TAT ([…] in the sequence listing) and the KSH1 peptide; used for negative control was a peptide sequence lacking intracellular transferability (SEQ ID NO:57 in the sequence listing).

Where [1] appears, read: 50 μM, 25 μM, 12.5 μM and 6.5 μM.

Entries after “also recorded” stand apart in the source; their conditions may differ.

In the case of “KSH1-30: two tryptophans substituted with tyrosine (RLYMRYYSPTTRRYG; Designed peptide to act as PTD(Protein Transduction Domain))”, the “intracellular translocation compared with KSH1-1 (in words)” value under setting [1] is listed as “good intracellular translocation was exhibited; also recorded: good results”.

Regarding “KSH1-36: the reversed-chain peptide of KSH1 (GYRRTTPSYWRMWLR; Designed peptide to act as PTD(Protein Transduction Domain))”, the “intracellular translocation compared with KSH1 (in words)” value reads like this: (at high concentrations) “accentuated intracellular translocation”; (at low concentrations) “tended to decrease”.

“KSH1-19: alanine substitution form of KSH1-1 (RLWMRWYSGTTRRYG; Designed peptide to act as PTD(Protein Transduction Domain))”: the “contribution of the alanine-substituted amino acid to the intracellular translocation” value (from here on “contribution”) is “minor contribution”.

As for “KSH1-27: serine and threonine all substituted with alanine (RLWMRWYAPAARRYG; Designed peptide to act as PTD(Protein Transduction Domain))”, the “intracellular translocation compared with KSH1-1 (in words)” value under setting [1] is “decreased slightly”. Also, the “translocation compared with KSH1-1 (in words)” value (at low concentrations) is given as “nearly the same”.

Regarding “KSH1-3: KSH1 with the 13th arginine substituted with alanine (KLWMRWYSPTTRAYG; Designed peptide to act as PTD(Protein Transduction Domain))”, under setting [1], the “intracellular translocation compared with KSH1 (in words)” value is given as “decreased remarkably; also recorded: became observable very little”. In addition, the “concentration at which intracellular translocation was detected” value (detected only at this concentration) amounted to 50 µM.

Turning to “KSH1-6: KSH1 with the two tryptophans both substituted with alanine (KLAMRAYSPTTRRYG; Designed peptide to act as PTD(Protein Transduction Domain))”, the “intracellular translocation compared with KSH1 (in words)” value under setting [1] is listed as “no longer observable at all”.

For the substance “KSH1-25: two tryptophans substituted with phenylalanine (RLFMRFYSPTTRRYG; Designed peptide to act as PTD(Protein Transduction Domain))”, under setting [1], the “intracellular translocation compared with KSH1-1 (in words)” value is reported as “nearly the same as KSH1-1”.

“KSH1-11: KSH1-1 with the 1st arginine substituted with alanine (ALWMRWYSPTTRRYG; Designed peptide to act as PTD(Protein Transduction Domain))”: the “contribution” value was “minor contribution”. Further, the “intracellular translocation compared with KSH1-1 (in words)” value under setting [1] is reported as “did not decrease a lot”.

Consider “KSH1-26: two tryptophans substituted with isoleucine (RLIMRIYSPTTRRYG; Designed peptide to act as PTD(Protein Transduction Domain))”, for which the “intracellular translocation compared with KSH1-1 (in words)” value under setting [1] was “nearly the same as KSH1-1”.

With “KSH1-29: two tryptophans substituted with valine (RLVMRVYSPTTRRYG; Designed peptide to act as PTD(Protein Transduction Domain))”, under setting [1], the “intracellular translocation compared with KSH1-1 (in words)” value is given as “decreased slightly”.

On to “KSH1-17: KSH1-1 with the 7th tyrosine substituted with alanine (RLWMRWASPTTRRYG; Designed peptide to act as PTD(Protein Transduction Domain))”, for which the “intracellular translocation compared with KSH1-1 (in words)” value under setting [1] is reported as “almost no intracellular translocation was observed”.

For the substance “KSH1-2: KSH1 with proline substituted with alanine (KLWMRWYSATTRRYG; Designed peptide to act as PTD(Protein Transduction Domain))”, under setting [1], the “intracellular translocation compared with KSH1 (in words)” value is recorded as “no influence on the intracellular transferability was observed”.

Consider “KSH1-4: modified KSH1 with three tryptophans uniformly arranged on the wheel structure (KLWMRWWSPTTRRYG; Designed peptide to act as PTD(Protein Transduction Domain))”, for which, under setting [1], the “intracellular translocation compared with KSH1 (in words)” value is listed as “did not change”.

For the substance “KSH1-22: alanine substitution form of KSH1-1 (an arginine substituted) (RLWMRWYSPTTARYG; Designed peptide to act as PTD(Protein Transduction Domain))”, the “intracellular translocation compared with KSH1-1 (in words)” value under setting [1] was “decreased”.

Turning to “KSH1-34: 14th tyrosine in the vicinity of the 3rd tryptophan substituted with arginine (RLWMRWYSPTTRARG; Designed peptide to act as PTD(Protein Transduction Domain))”, the “intracellular translocation compared with KSH1-1 (in words)” value under setting [1] is on record as “decreased considerably”.

Regarding “KSH1-24: two tryptophans substituted with leucine (RLLMRLYSPTTRRYG; Designed peptide to act as PTD(Protein Transduction Domain))”, under setting [1], the “intracellular translocation compared with KSH1-1 (in words)” value was “decreased”.

With “KSH1-15: alanine substitution form of KSH1-1 (an arginine substituted) (RLWMAWYSPTTRRYG; Designed peptide to act as PTD(Protein Transduction Domain))”, the “intracellular translocation compared with KSH1-1 (in words)” value under setting [1] is recorded as “decreased”.

As to “KSH1-23: alanine substitution form of KSH1-1 (RLWMRWYSPTTRRAG; Designed peptide to act as PTD(Protein Transduction Domain))”, the “contribution” value is “minor contribution”.

Take “KSH1-35: alanine substitution form of KSH1-1 (RLWMRWYSPTTRRYA; Designed peptide to act as PTD(Protein Transduction Domain))”: the “contribution” value is recorded as “minor contribution”.
